Results reported in patent publication US8962032B2, “Modulator” (The Queen's University of Belfast, priority 2009, dated 2015).

Tested on: C57bl/6 bone marrow derived macrophages
Assay: LPS-induced TNFα and IL-6 in C57bl/6 BMDM with controls
Type: cell-based
Conditions: C57bl/6 BMDM re-stimulated with 1 ng/ml LPS ± 25 μg/ml nanoparticles or controls
Description: FIG. 9 illustrates reduction of TNFα and IL-6 production from C57bl/6 bone marrow derived macrophages (BMDM) incubated with LPS and α2,8 sialic acid conjugated PLGA nanoparticles. The BMDM were stimulated with 1 ng/ml LPS overnight to up-regulate Siglec-E. Cells were washed twice in serum-free DMEM prior to resting for 2 hr. Cells were re-stimulated with 1 ng/ml LPS±α2,8 sialic acid conjugated PLGA nanoparticles (NP) or appropriate controls—Unconjugated (nude) NP, Sialic acid washed, but unconjugated NP, Sialic acid at same concentration as NP or nanoparticles conjugated to the non-Siglec binding glucosamine. TNFα and IL-6 was measured by ELISA. One way ANOVA was used to determine significance.
4×10^4/well C57bl/6 bone marrow derived macrophages were stimulated with 1 ng/ml LPS overnight to up-regulate Siglec-E. Cells were washed twice in serum-free DMEM prior to resting for 2 hr. The results of cells re-stimulated with 1 ng/ml LPS±α2,8 sialic acid conjugated PLGA nanoparticles (NP) or appropriate controls—Unconjugated (nude) nanoparticles, Sialic acid washed—but unconjugated nanoparticles, Sialic acid at same concentration as nanoparticles or nanoparticles conjugated to the non-Siglec binding glucosamine are shown. TNFα and IL-6 was measured by ELISA. One way ANOVA with post-hoc Tukey test was used to determine significance. P=0.001.

alpha 2-8 diacetylneuraminic acid [sialic acid]
IL-6 (ELISA): insufficient to cause the effect observed
TNFα (ELISA): insufficient to cause the effect observed
